Measurements reported in patent US8513232B2, “Substituted spirocyclic piperidine derivatives as histamine-3 (H3) receptor ligands” (Cephalon, Inc., priority 2008, dated 2013).
Where two headings read alike, the source gives them in different places.

Assays:
[1] = target: T1, rat histamine H3 receptor (Rattus norvegicus, UniProt Q9QYN8); assay: Rat H3 radioligand binding ([3H]-N-alpha-methylhistamine, SPA)
T1 construct: encoding the entire 445-amino-acid rat histamine H3 receptor; expressed in transfected cells; membrane preparation
T1 sequence (Q9QYN8 whole entry): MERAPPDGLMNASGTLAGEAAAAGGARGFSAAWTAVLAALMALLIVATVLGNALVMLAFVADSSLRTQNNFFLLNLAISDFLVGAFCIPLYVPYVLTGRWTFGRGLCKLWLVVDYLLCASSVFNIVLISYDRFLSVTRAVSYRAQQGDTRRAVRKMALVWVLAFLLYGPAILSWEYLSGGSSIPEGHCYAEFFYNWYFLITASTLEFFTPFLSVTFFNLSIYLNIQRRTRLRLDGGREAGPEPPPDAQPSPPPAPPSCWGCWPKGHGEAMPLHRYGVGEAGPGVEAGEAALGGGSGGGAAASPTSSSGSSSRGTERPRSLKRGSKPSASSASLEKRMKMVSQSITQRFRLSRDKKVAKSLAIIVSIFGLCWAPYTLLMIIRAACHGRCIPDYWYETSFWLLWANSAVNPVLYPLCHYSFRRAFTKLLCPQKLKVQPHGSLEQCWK
In short: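 Membranes from CHO-A3 cells stably expressing full-length rat H3 receptor (10 μg protein/well) incubated 4 h at room temperature, protected from light, with ~1 nM [3H]-N-alpha-methylhistamine and compound (0.01 nM-30 μM) in 50 mM Tris HCl pH 7.4, 5 mM MgCl2, 0.1% BSA. Binding read by SPA; 10 μM clobenpropit defined non-specific binding.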

human H3 receptor = target: T2, human H3 receptor (Homo sapiens, UniProt Q9Y5N1); assay: Human H3 radioligand binding ([3H]-N-alpha-methylhistamine, SPA)
T2 construct: expressed in transfected cells
T2 sequence (Q9Y5N1 whole entry): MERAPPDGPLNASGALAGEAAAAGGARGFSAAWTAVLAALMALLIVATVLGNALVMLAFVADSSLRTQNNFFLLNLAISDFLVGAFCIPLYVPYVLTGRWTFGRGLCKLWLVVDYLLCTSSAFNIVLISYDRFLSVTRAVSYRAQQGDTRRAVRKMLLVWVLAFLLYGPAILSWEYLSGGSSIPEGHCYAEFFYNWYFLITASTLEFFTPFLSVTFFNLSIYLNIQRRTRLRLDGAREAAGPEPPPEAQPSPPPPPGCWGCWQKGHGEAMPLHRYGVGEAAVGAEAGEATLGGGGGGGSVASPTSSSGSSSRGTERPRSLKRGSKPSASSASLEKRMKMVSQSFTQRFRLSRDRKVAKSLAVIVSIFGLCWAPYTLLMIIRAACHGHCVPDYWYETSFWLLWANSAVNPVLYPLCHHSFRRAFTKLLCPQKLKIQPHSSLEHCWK
In short: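 SPA competition binding on membranes from CHO cells stably expressing human H3 receptor (10 μg protein/well) with ~1 nM [3H]-N-alpha-methylhistamine and compound at 0.01 nM-30 μM. Incubation 4 h at room temperature in 50 mM Tris-HCl pH 7.4, 5 mM MgCl2, 0.1% BSA; non-specific binding defined with 10 μM clobenpropit.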

[2] = Rat H3 binding, Table B, Examples 136-362, read-out: rat H3 binding Ki
[3] = Human H3 binding, Table B, Examples 136-362, read-out: hum H3 binding Ki
[4] = Table C, rat H3 binding, read-out: Rat H3 Ki
[5] = Table C, human H3 binding, read-out: Human H3 Ki

Ki [1, 2]	melting point	Ki (human H3 receptor; [3])	Ki [1, 4]	Ki (human H3 receptor; [5])	SMILES
< 0.2 µM	208.4 to 210.6 °C	< 0.2 µM	–	–	CC(C)C(=O)NC1CCN(c2ccc3c(c2)COC2(CCN(C4CCC4)CC2)O3)CC1 [Example 324]
< 0.2 µM	45 to 47 °C	< 0.2 µM	–	–	c1ncc(COc2ccc3c(c2)CCC2(CCN(C4CCC4)CC2)O3)o1 [Example 325]
< 0.2 µM	235 to 237 °C	< 0.2 µM	–	–	O=C(Nc1ccc2c(c1)COC1(CCN(C3CCC3)CC1)O2)c1ccc2[nH]cnc2c1 [Example 326]
< 0.2 µM	190.8 to 192 °C	< 0.2 µM	–	–	CC(=O)NC1CCN(c2ccc3c(c2)COC2(CCN(C4CCC4)CC2)O3)CC1 [Example 328]
< 0.2 µM	193 to 195.2 °C	< 0.2 µM	–	–	CN(C)C(=O)NC1CCN(c2ccc3c(c2)COC2(CCN(C4CCC4)CC2)O3)CC1 [Example 329]
< 0.2 µM	234 to 235 °C	< 0.2 µM	–	–	COCCNC(=O)c1ccc(-c2ccc3c(c2)COC2(CCN(C4CCC4)CC2)O3)cc1Cl [Example 330]
< 0.2 µM	170 to 172 °C	< 0.2 µM	–	–	O=C(Cc1ccncc1)Nc1ccc2c(c1)COC1(CCN(C3CCC3)CC1)O2 [Example 331]
< 0.2 µM	231 to 232 °C	< 0.2 µM	–	–	COCCNC(=O)c1ccc(-c2ccc3c(c2)CCC2(CCN(C4CCC4)CC2)O3)cc1Cl [Example 332]
< 0.2 µM	167 to 169 °C	< 0.2 µM	–	–	O=C(Cc1cccnc1)Nc1ccc2c(c1)COC1(CCN(C3CCC3)CC1)O2 [Example 333]
< 0.2 µM	159 to 161 °C	< 0.2 µM	–	–	CS(=O)(=O)N1CCC(COc2ccc3c(c2)CCC2(CCN(C4CCC4)CC2)O3)CC1 [Example 335]
< 0.2 µM	101 to 102 °C	< 0.2 µM	–	–	c1cc(CNc2ccc3c(c2)COC2(CCN(C4CCC4)CC2)O3)cs1 [Example 336]
< 0.2 µM	58 to 60 °C	< 0.2 µM	–	–	COCCNC(=O)c1ccc(-c2ccc3c(c2)CCC2(CCN(C4CCC4)C2)O3)cc1F (stereo not drawn) [Example 337]
< 0.2 µM	249 to 250 °C	< 0.2 µM	–	–	O=C(Nc1ccc2c(c1)COC1(CCN(C3CCC3)CC1)O2)c1ccc2[nH]ncc2c1 [Example 338]
< 0.2 µM	231 to 233 °C	< 0.2 µM	–	–	CN(C)C(=O)N1CCN(c2ccc3c(c2)CCC2(CCN(C4CCC4)C2)O3)CC1 (stereo not drawn) [Example 339]
< 0.2 µM	194 to 195 °C	< 0.2 µM	–	–	O=C(N[C@@H]1CCOC1)c1ccc(-c2ccc3c(c2)CCC2(CCN(C4CCC4)CC2)O3)cc1 [Example 341]
< 0.2 µM	77.9 to 80 °C	< 0.2 µM	–	–	CC(=O)N[C@H]1CCN(c2ccc3c(c2)COC2(CCN(C4CCC4)CC2)O3)C1 [Example 342]
< 0.2 µM	77.9 to 79.9 °C	< 0.2 µM	–	–	CC(=O)N[C@@H]1CCN(c2ccc3c(c2)COC2(CCN(C4CCC4)CC2)O3)C1 [Example 343]
< 0.2 µM	112 to 113 °C	< 0.2 µM	–	–	c1csc(CNc2ccc3c(c2)COC2(CCN(C4CCC4)CC2)O3)c1 [Example 344]
< 0.2 µM	254 to 255 °C	< 0.2 µM	–	–	O=C(Nc1ccc2c(c1)COC1(CCN(C3CCC3)CC1)O2)c1ccc2nccn2c1 [Example 345]
< 0.2 µM	198 to 199 °C	< 0.2 µM	–	–	O=C(N[C@@H]1CCOC1)c1ccc(-c2ccc3c(c2)COC2(CCN(C4CCC4)CC2)O3)cc1 [Example 346]

Ki [1, 2]	melting point	Ki (human H3 receptor; [3])	Ki [1, 4]	Ki (human H3 receptor; [5])	SMILES
< 0.2 µM	70.2 to 72.2 °C	< 0.2 µM	–	–	O[C@@H]1CCN(c2ccc3c(c2)COC2(CCN(C4CCC4)CC2)O3)C1 [Example 347]
< 0.2 µM	119 to 120 °C	< 0.2 µM	–	–	CC(=O)N(Cc1cccs1)c1ccc2c(c1)COC1(CCN(C3CCC3)CC1)O2 [Example 348]
< 0.2 µM	228 to 229 °C	< 0.2 µM	–	–	O=C(Nc1ccc2c(c1)COC1(CCN(C3CCC3)CC1)O2)C1CCOCC1 [Example 349]
0.2 to 1 µM	160 to 162 °C	0.2 to 1 µM	–	–	Nc1ccc2c(c1)COC1(CCN(C3CCC3)CC1)O2 [Example 350]
< 0.2 µM	113 to 116.1 °C	< 0.2 µM	–	–	CCN(CC)C(=O)N1CCN(c2ccc3c(c2)COC2(CCN(C4CCC4)CC2)O3)CC1 [Example 351]
< 0.2 µM	101 to 102 °C	< 0.2 µM	–	–	CC(=O)N(Cc1ccsc1)c1ccc2c(c1)COC1(CCN(C3CCC3)CC1)O2 [Example 352]
< 0.2 µM	209 to 210 °C	< 0.2 µM	–	–	Cc1cnccc1C(=O)Nc1ccc2c(c1)COC1(CCN(C3CCC3)CC1)O2 [Example 353]
< 0.2 µM	72.6 to 74.9 °C	< 0.2 µM	–	–	O[C@H]1CCN(c2ccc3c(c2)COC2(CCN(C4CCC4)CC2)O3)C1 [Example 354]
< 0.2 µM	131 to 132 °C	< 0.2 µM	–	–	CC(C)NC(=O)c1ccc(-c2ccc3c(c2)CCC2(CCN(C4CCC4)CC2)O3)cc1F [Example 355]
< 0.2 µM	146.5 to 148 °C	< 0.2 µM	–	–	CC(C)NC(=O)c1ccc(-c2ccc3c(c2)COC2(CCN(C4CCC4)CC2)O3)cc1F [Example 356]
< 0.2 µM	130 to 132 °C	< 0.2 µM	–	–	CC(C)C(=O)N1CCC(COc2ccc3c(c2)CCC2(CCN(C4CCC4)CC2)O3)CC1 [Example 357]
< 0.2 µM	128 to 130 °C	< 0.2 µM	–	–	O=C(C1CC1)N1CCC(COc2ccc3c(c2)CCC2(CCN(C4CCC4)CC2)O3)CC1 [Example 358]
< 0.2 µM	78 to 80 °C	< 0.2 µM	–	–	COCCN(C)C(=O)c1c(F)cc(-c2ccc3c(c2)COC2(CCN(C4CCC4)CC2)O3)cc1F [Example 359]
< 0.2 µM	100 to 102 °C	< 0.2 µM	–	–	COCCN(C)C(=O)c1c(F)cc(-c2ccc3c(c2)CCC2(CCN(C4CCC4)CC2)O3)cc1F [Example 360]
< 0.2 µM	205 to 207 °C	< 0.2 µM	–	–	O=C(NC1CCOCC1)c1ccc(-c2ccc3c(c2)CCC2(CCN(C4CCC4)CC2)O3)cc1 [Example 361]
< 0.2 µM	216 to 218 °C	< 0.2 µM	–	–	O=C(NC1CCOCC1)c1ccc(-c2ccc3c(c2)COC2(CCN(C4CCC4)CC2)O3)cc1 [Example 362]
–	173 to 175 °C	–	< 0.2 µM	< 0.2 µM	c1ccc(N2CCN(c3ccc4c(c3)CCC3(CCN(C5CCC5)CC3)O4)CC2)cc1 [Example 363]
–	125 to 126 °C	–	< 0.2 µM	< 0.2 µM	CN1CCN(c2ccc3c(c2)CCC2(CCN(C4CCC4)CC2)O3)CC1 [Example 364]
–	292 to 293 °C	–	< 0.2 µM	< 0.2 µM	c1ccc(CN2CCN(c3ccc4c(c3)CCC3(CCN(C5CCC5)CC3)O4)CC2)cc1 [Example 365]
